The values below are quoted from earlier work in patent US9681659B2, “Agrochemical formulation comprising encapsulated pesticide” (BASF SE, priority 2011, dated 2017).

The structures appear in SMILES notation. In brackets after ≈: the same amount, converted by molar mass.

As to `CC1=CC(=O)CC(C)(C)C1` [isoporone], for the setting “all data at 20° C., examples for aprotic, polar solvent B”, the “solubility values (in water)” value is 15 mg/mL (≈ 109 mM).
As for `COc1cc(C)c(C(=O)c2c(OC)ccc(Br)c2C)c(OC)c1OC` [metrafenon], under “in water, examples for pesticide A”, the solubilities in water was 0.5 mg/L.
